# From ChEMBL document CHEMBL4033752, “Discovery of Potent and Selective Tricyclic Inhibitors of Bruton's Tyrosine Kinase with Improved Druglike Properties” (ACS Med Chem Lett, 2017)
# Calls of active or inactive are those of the source. The calls are words filed in the database; no cut-off is given here.
# Tests used:
# [1] = Total clearance in rat at 1 mg/kg, iv; assay type: ADME, organism-based; conditions: in vivo
# [2] = Oral bioavailability in rat at 5 mg/kg; assay type: ADME, organism-based; conditions: in vivo
# [3] = Apparent permeability from apical side to basolateral side in MDCK cells at 10 uM after 3 hrs by LC-MS/MS analysis; assay type: ADME, cell-based, Canis lupus familiaris; conditions: dog
# [4] = molecular target: T1, Tyrosine-protein kinase BTK (Homo sapiens, UniProt Q06187)
# Description: Inhibition of recombinant human full length His-tagged BTK expressed in baculovirus expression system by Z-LYTE assay
# [5] = molecular target: Tyrosine-protein kinase BTK (Mus musculus, UniProt P35991)
# [6] = molecular target: T1, Tyrosine-protein kinase BTK; remark: listed apart in the source
# Description: Inhibition of BTK in goat anti-human IgM F(ab')2-stimulated human whole blood assessed as suppression of BCR-induced CD69 expression on B cells preincubated for 1 hr followed by blood stimulation measured after 18 hrs by FACS analysis
# [7] = buffer, pH 7.4
# Description: Kinetic solubility of the compound at pH 7.4
# [8] = Total clearance in mouse; assay type: ADME, organism-based; conditions: in vivo
# [9] = Total clearance in dog; assay type: ADME, Canis lupus familiaris; conditions: in vivo
# [10] = Total clearance in cynomolgus monkey; assay type: ADME, Macaca fascicularis; conditions: in vivo
# [11] = tested on: Mus musculus; test: Oral bioavailability in mouse at 5 mg/kg; assay type: ADME, organism-based; conditions: in vivo
# [12] = tested on: Mus musculus; test: Oral bioavailability in mouse at 100 mg/kg; assay type: ADME, organism-based; conditions: in vivo
# [13] = tested on: Rattus norvegicus; test: Oral bioavailability in rat at 100 mg/kg; assay type: ADME, organism-based; conditions: in vivo
# [14] = tested on: Canis familiaris; test: Oral bioavailability in dog at 5 mg/kg; assay type: ADME, organism-based, Canis lupus familiaris; conditions: in vivo
# [15] = tested on: Rattus norvegicus; test: Antiinflammatory activity in Lewis rat CIA model assessed as reduction in ankle thickness administered via oral gavage as bid measured between day 10 and day 17; assay type: functional
# [16] = tested on: Rattus norvegicus; test: Antiinflammatory activity in Lewis rat CIA model assessed as reduction in ankle thickness at 0.05 mg/kg measured between day 10 and day 17; assay type: functional, organism-based
# Chain of Tyrosine-protein kinase BTK (Mus musculus, UniProt P35991) (P35991 whole entry): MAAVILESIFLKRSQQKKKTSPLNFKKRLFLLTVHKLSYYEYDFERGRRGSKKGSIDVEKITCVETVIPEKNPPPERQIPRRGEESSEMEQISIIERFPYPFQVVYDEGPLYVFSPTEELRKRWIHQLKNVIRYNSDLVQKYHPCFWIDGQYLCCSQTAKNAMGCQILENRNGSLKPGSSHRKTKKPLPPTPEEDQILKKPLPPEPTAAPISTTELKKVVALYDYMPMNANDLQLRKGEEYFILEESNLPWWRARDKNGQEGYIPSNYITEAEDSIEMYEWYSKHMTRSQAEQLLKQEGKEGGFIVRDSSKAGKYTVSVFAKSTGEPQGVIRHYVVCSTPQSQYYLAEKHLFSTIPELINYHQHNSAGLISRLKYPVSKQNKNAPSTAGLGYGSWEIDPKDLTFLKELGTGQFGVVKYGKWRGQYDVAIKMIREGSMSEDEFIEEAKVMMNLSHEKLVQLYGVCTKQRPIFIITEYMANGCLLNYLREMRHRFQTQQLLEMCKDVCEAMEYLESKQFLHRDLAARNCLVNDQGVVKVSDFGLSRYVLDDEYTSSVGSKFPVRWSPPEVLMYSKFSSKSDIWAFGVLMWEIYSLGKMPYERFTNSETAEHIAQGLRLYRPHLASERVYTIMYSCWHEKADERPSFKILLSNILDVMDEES
# T1 sequence (Q06187 whole entry): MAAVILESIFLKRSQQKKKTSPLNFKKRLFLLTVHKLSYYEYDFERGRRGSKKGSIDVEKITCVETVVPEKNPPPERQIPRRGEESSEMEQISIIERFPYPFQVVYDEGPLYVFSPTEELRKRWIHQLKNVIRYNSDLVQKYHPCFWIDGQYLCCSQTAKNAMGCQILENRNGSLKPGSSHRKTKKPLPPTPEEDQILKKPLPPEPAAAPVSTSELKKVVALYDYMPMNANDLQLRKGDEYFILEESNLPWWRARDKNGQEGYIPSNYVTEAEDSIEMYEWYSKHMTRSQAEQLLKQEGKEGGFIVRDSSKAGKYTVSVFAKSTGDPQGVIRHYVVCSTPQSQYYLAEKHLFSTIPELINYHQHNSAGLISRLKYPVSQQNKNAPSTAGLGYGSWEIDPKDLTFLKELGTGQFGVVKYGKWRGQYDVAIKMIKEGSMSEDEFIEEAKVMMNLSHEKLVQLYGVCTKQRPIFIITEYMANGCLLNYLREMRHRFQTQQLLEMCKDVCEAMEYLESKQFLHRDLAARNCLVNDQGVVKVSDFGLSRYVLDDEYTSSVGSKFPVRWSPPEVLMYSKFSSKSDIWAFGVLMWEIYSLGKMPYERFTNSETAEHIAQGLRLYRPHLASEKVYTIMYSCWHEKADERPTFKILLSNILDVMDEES
SMILES,clearance [1] [mL/min/kg],bioavailability [2] [%],"Papp A→B at 3 h, 10 µM [3] [×10⁻⁶ cm/s]",IC50 [4] [µM],IC50 [5] [µM],Kinetic_solubility [7] [µM],further results
CN1CCN(c2ccc(Nc3cc(-c4cccc(N5CCc6c(sc7c6CC(C)(C)C7)C5=O)c4CO)cn(C)c3=O)nc2)CC1,29,37,–,–,–,–,–
Cn1cc(-c2cccc(N3CCn4c(cc5c4CCCC5)C3=O)c2CO)cc(Nc2ccc(N3CCN(C4COC4)CC3)cn2)c1=O,14,46,1 to 10,0.008,0.137,99,IC50 [6]: 0.069 µM
Cn1cc(-c2cccc(N3CCc4c(sc5c4CCCC5)C3=O)c2CO)cc(Nc2ccncn2)c1=O,–,90,–,–,–,–,–
Cn1cc(-c2cccc(N3CCc4c(sc5c4CC(C)(C)C5)C3=O)c2CO)cc(Nc2ccncn2)c1=O,–,–,–,–,–,–,clearance [8]: 22 mL/min/kg; clearance [9]: 7 mL/min/kg; clearance [10]: 17 mL/min/kg; F [11]: 77%; F [12]: 45%; F [13]: 23%; F [14]: 27%; Activity [15]: Dose-dependent effect
Cc1c(NC(=O)c2cc3c(s2)CCCC3)cccc1-c1cc(Nc2ccncn2)c(=O)n(C)c1,2,45,–,0.042,0.74,–,–
CN1CCN(c2ccc(Nc3cc(-c4cc(F)cc(N5CCn6c(cc7c6CCCC7)C5=O)c4CO)cn(C)c3=O)nc2)CC1,37,52,1 to 10,–,0.022,71,–
Cn1cc(-c2cccc(N3CCc4cc(C(C)(C)C)ccc4C3=O)c2CO)cc(Nc2ccncn2)c1=O,–,–,–,–,0.051,2,–
C[C@@H]1C[C@H]2[C@@H]3CCC4=CC(=O)C=C[C@]4(C)[C@@]3(F)[C@@H](O)C[C@]2(C)[C@@]1(O)C(=O)CO,–,–,–,–,–,–,Activity [16]: Active
Cn1cc(-c2cc(F)cc(N3CCn4c(cc5c4CCCC5)C3=O)c2CO)cc(Nc2ccc(N3CCN(C4COC4)CC3)cn2)c1=O,20,27,> 10,–,0.01,73,–
CN1CCN(c2ccc(Nc3cc(-c4cccc(N5CCn6c(cc7c6CCCC7)C5=O)c4CO)cn(C)c3=O)nc2)CC1,40,20,1 to 10,0.004,0.107,115,IC50 [6]: 0.045 µM
